Measured values: patent US11261429B2, “Enriched and expanded human cord blood stem cells for treatment of hematological disorders” (ICAHN SCHOOL OF MEDICINE AT MOUNT SINAI, priority 2013, dated 2022)
Where “and” joins values, the source holds several entries; their conditions need not be identical. Identical values can stand only once.

Experiments:
[1] = tested on: CB CD34+ cells; assay: Migration assay towards SDF1 (Transwell); assay type: cell-based, human; details: SDF1 100 ng/ml, after 16 and 48 hours, versus control
Procedure: The migratory behavior of CB CD34+ cells was evaluated as previously described using 6.5 mm diameter, 5 μm pore Transwell plates (Costar) (Shivtiel et al., “CD45 Regulates Homing and Engraftment of Immature Normal and Leukemic Human Cells in Transplanted immunodeficient Mice,” Exp. Hematol. 39(12):1161-1170 (2011), which is hereby incorporated by reference in its entirety). The lower compartments of the Transwells were filled with StemLine II SF medium supplemented with 100 ng/ml of stromal-derived factor 1 (SDF1) (R&D Systems). The Transwell filters were coated with Matrigel for 30 minutes at 37° C. Re-isolated CD34+ cells (1×10^5) from the control and VPA-containing cultures were plated on the Matrigel-coated filters in 100 μl of Stemline II media. After 16 and 48 hours, cells that migrated to the lower compartment were enumerated, and the percentage of migration was calculated as follows: (number of cells migrated/total number of cells plated)×100.

[2] = tested on: NANOG; assay: Pluripotency protein expression in re-isolated CD34+ cells, mAb staining and flow cytometry; assay type: cell-based, human; details: 7 days
Procedure: (§1) PCs and re-isolated, cultured CD34+ cells from control cultures and cultures containing VPA were fixed with methanol-free formaldehyde (2.8%) for 10 minutes at 37° C., briefly chilled on ice, and permeabilized with 100% ice-cold methanol. Cells were further incubated on ice for 20 minutes and blocked with incubation buffer (PBS containing 0.5% BSA) for 10 minutes and stained for SOX2 and OCT4 with an FITC-conjugated mAb or isotype controls for an hour at room temperature. Cells were also stained with a rabbit mAb for NANOG, followed by an FITC-conjugated anti-rabbit secondary antibody, and cells were washed and analyzed by flow cytometry.

[3] = tested on: OCT4; assay: as above; assay type: cell-based, human; details: 7 days
Procedure: as §1

[4] = tested on: SOX2; assay: as above; assay type: cell-based, human; details: 7 days
Procedure: as §1

[5] = tested on: NSG mice; assay: Homing assay of re-isolated CD34+ cells in NSG mice; assay type: in vivo; details: 16 and 48 hours after infusion, versus control conditions
Procedure: The homing of re-isolated CD34+ cells (5×10^5/mouse) after treatment under control conditions or with VPA was performed as previously described (Shivtiel et at, “CD45 Regulates Homing and Engraftment of Immature Normal and Leukemic Human Cells in Transplanted Immunodeficient Mice,” Exp. Hematol. 39(12):1161-1170 (2011), which is hereby incorporated by reference in its entirety). The recipient NSG mice were purchased from the Jackson Laboratory and sublethally irradiated (300 cGy) 4 hours prior to infusion of the re-isolated CD34+ cells via the tail vein. Sixteen and 48 hours after their infusion, BM cells were harvested from 2 femurs and 2 tibias from each recipient mouse and analyzed by flow cytometry for the presence of human CD34+ cells using a human CD34-APC mAb. The homing of these cell populations was determined by quantitating the number of CD34+ cells per 10^6 acquired events in the BM of the recipient mice. […] Eight NSG mice received CD34+ cells cultured under control conditions, and 10 mice received CD34+ cells from VPA-containing cultures.

[6] = tested on: CB CD34+ cells; assay: Ex vivo expansion of CB CD34+ cells with HDACIs, phenotypic analysis by flow cytometry; assay type: cell-based, human; details: for fold expansion of CD34+ cells / fold expansion of CD34+CD90+ cells: cytokines
Description: CB collections were purchased from the Placental Blood Program at the New York Blood Center. CB-MNCs were isolated by Ficoll-Hypaque density centrifugation, and CD34+ cells were purified by immunotnagnetic selection as previously described (Chaurasia et al., “Chromatin-Modifying Agents Promote the Ex vivo Production of Functional Human Erythroid Progenitor Cells,” Blood 117:4632-4641 (2011), which is hereby incorporated by reference in its entirety). Highly purified (90%-98%) PCs (4.0-5.0×10^4) were cultured in SF Stemline II (Sigma-Aldrich) culture medium or IMDM (Lonza) containing 30% FBS (HyClone Laboratories) supplemented with 150 ng/ml SCF, 100 ng/ml fms-like tyrosine kinase receptor 3 (FLT3 ligand), 100 ng/ml thrombopoietin (TPO), and 50 ng/ml interleukin 3 (IL-3) (R&D Systems) and incubated in a humidified incubator maintained at 37° C. with 5% CO2. […] The cell populations studied and the various conditions under which they were cultured are referred to by specific terms listed in Table 1. Viable PC and cultured cells were enumerated using the trypan blue exclusion method. The fold expansion of CD34+ cells or subpopulations was calculated based on the number of CD34+ cells determined to be present in an individual CB collection and the number of CD34+ cells that would have been generated if all of the CD34+ cells within that primary CB collection were cultured using the various culture conditions described. PC or cultured cells expanded in the presence or absence of HDACIs were stained with an anti-human CD34 mAb or an isotype-matched control mAb and analyzed using a FACSCanto II (BD). CD34+ cells were re-isolated using a CD34+ cell isolation kit, as previously described, for further phenotypic and functional analyses. All mAbs were purchased from BD Biosciences and Cell Signaling Technology. Phenotypic analyses ([…], […], and […]7) of the ex vivo-expanded cells after 7 days in control cultures or cytokines plus an HDACI were performed as previously described (Chaurasia et al., “Chromatin-Modifying Agents Promote the Ex vivo Production of Functional Human Erythroid Progenitor Cells,” Blood 117:4632-4641 (2011), which is hereby incorporated by reference in its entirety).

[7] = tested on: HDAC4; assay: HDAC protein levels in CB-MNCs, Western blot densitometry; assay type: cell-based, human; details: 24 hr, SCR 8 μM, C433 80 μM, VPA 1.25 mM
Description: Cellular proteins were separated by SDS-PAGE using Novex (Invitrogen) and transferred by iBlot (Invitrogen). The membranes were probed with mAbs against individual histone deacetylases (HDAC1, HDAC2, HDAC3, HDAC4, HDAC5, HDAC6, and β-actin; Cell Signaling Technology) and developed using a chemiluminescence system with HRP-conjugated secondary antibodies (Amersham Biosciences) according to the manufacturer's instructions.

[8] = SF cultures containing VPA, 7 days

For `CCCC(CCC)C(=O)O` [VPA, valproic acid], the “migration of CD34+ cells in response to SDF1” value [1] was “significantly greater number of CD34+ cells treated with VPA migrated in response to SDF1”, the “percentage of CD34+ cells expressing NANOG” value ([2]; SC cultures) was 5.6 ± 1.4^A % and the “percentage of CD34+ cells expressing NANOG” value ([2]; SF cultures) was 57.6 ± 6.8^A %. The “percentage of CD34+ cells expressing OCT4” value ([3]; SC cultures) was 8.2 ± 1.7^A %, the “percentage of CD34+ cells expressing OCT4” value ([3]; SF cultures) was 32.9 ± 3.8^A % and the “percentage of CD34+ cells expressing SOX2” value ([4]; SC cultures) was 3.9 ± 1.9^A %. For the same compound, the “percentage of CD34+ cells expressing SOX2” value ([4]; SF cultures) was 23.1 ± 6.5^A %, the “homing of CD34+ cells to the marrow of NSG mice” value [5] was “increased horning of CD34+ cells” and the “percentage of CD34+CD90+ cells” value ([6]; 7 days of culture with cytokines plus HDACI) was 75.2%±10.7% and 74.2±9.8%. For the same compound, the “fold expansion of CD34+ cells” value ([6]; SC conditions, 7 days) was 78 fold, the “fold expansion of CD34+CD90+ cells” value ([6]; SC conditions, 7 days) was 89 fold and the “fold expansion of CD34+ cells” value ([6]; SF conditions, 7 days) was 213 fold. For the same compound, the “fold expansion of CD34+CD90+ cells” value ([6]; SF conditions, 7 days) was 20,202 fold, the “CD34+CD90+ cells expressing CD45RA” value [6, 8] was 1.9%±2.1% and the “CD34+CD90+ cells expressing CD49f” value [6, 8] was 47.0%±4.4%. For the same compound, the “B Cells (CD19)” value ([6]; VPA-treated cells after 7 days) was 0.5±0.1%, the “CD14+ cells” value ([6]; VPA-treated cells after 7 days) was 3.9±1.5% and the “CD41+ cells” value ([6]; VPA-treated cells after 7 days) was 8.9±2.0%. For the same compound, the “Glycophorin+ cells” value ([6]; VPA-treated cells after 7 days) was 17.0±5.4%, the “T Cells (CD3)” value ([6]; VPA-treated cells after 7 days) was 0.2±0.3% and the “HDAC4 expression relative to b-ACTIN (%)” value [7] was 30.5 ± 9.3%.
